This is an account of results in paper PMC3030572, “Antamanide, a Derivative of Amanita phalloides, Is a Novel Inhibitor of the Mitochondrial Permeability Transition Pore” (PLoS ONE, 2011).

Assay [1] relates to HeLa cells. It is filed as cell-based, human. As to conditions: TMRM; for induction of mitochondrial depolarization / percentage of cells with depolarized mitochondria: difference from untreated cells: 1 hour; for percentage of cells with depolarized mitochondria: difference from untreated cells: Student's t test, Figure 5B. The method, then: Figure 5 Effect of AA on mitochondrial potential of HeLa cells. A, bar graphs report the ratio between the CRC detected in the presence (CRC) and absence (CRC0) of increasing concentrations of AA in mitochondria from HeLa cells. […] B,C cytofluorimetric analysis of mitochondrial depolarization. HeLa cells were incubated with the TMRM probe and treated for 1 hour with the reported concentrations of either clotrimazole (CTM) or TAT-HK peptide. An unrelated TAT-linked peptide (TAT-Ctr) is used as a negative control. […] Bar graphs in B display the percentage of cells with depolarized mitochondria (mean±SD, n = 4). […] Histograms in C report a representative experiment, where cells with polarized and depolarized mitochondria are indicated in red and grey, respectively.
(§1) Flow cytometry recordings were performed as described, [51], [52]. Briefly, at the end of the incubation, cells were resuspended in 135 mM NaCl, 10 mM HEPES, 5 mM CaCl2 and incubated at 37°C in either TMRM (10 nM) to detect mitochondrial depolarization (reduced TMRM staining), or in FITC-conjugated Annexin-V and propidium iodide (PI, 1 µg/ml), to detect phosphatidylserine exposure on the cell surface (increased FITC-conjugated Annexin-V staining) and loss of plasma membrane integrity (PI permeability and staining). […] Samples were analyzed on a FACSCanto II flow cytometer (Becton Dickinson, San Diego, CA, USA). Data acquisition and analysis were performed using FACSDiva software.

In assay [2] the test system is HeLa cells. It is filed as cell-based, human. The procedure: A, cytofluorimetric analysis of cell death induction in HeLa cells treated for 1 hour with TAT-HK. […] TAT-Ctr was used as a negative control. Cells were double stained with Annexin V-FITC and propidium iodide (PI), to respectively evaluate apoptosis induction as phosphatidylserine exposure on the cell surface (increased Annexin V-FITC staining) and cell death as plasma membrane permeabilization (increased PI staining). We considered Annexin V^+ as early/intermediate apoptotic cells; PI^+ as necrotic cells; double stained as late apoptotic cells. Bar graphs display the percentage of each cell population (mean±SD, n = 4; double positive cells are added to both bars). […] B, histograms reporting a representative experiment, where viable cells are indicated in red, PI^+- and Annexin V^+-cells are indicated in grey and green, respectively.
as §1

In assay [3] the test system is HeLa cells. It counts as cell-based, human. As to conditions: data not shown.
Assay [4] has as its system mitochondrial permeability transition pore (PTP). It counts as biochemical, mouse. The procedure:
A, chemical structure of AA. B, D, Ca^2+ retention capacity (CRC) either in phosphate (Pi) buffer (B) or in arsenate (Asi) buffer (D). Calcium Green-5N fluorescence is reported as arbitrary units on the y axis.
Mitochondria were isolated either from livers of C57BL/6 mice through sequential centrifugations, or from cells, as described. To obtain mitochondria, cells were disrupted with a glass-Teflon potter in a buffer composed by 250 mM sucrose, 10 mM Tris-HCl, 0.1 mM EGTA-Tris, pH 7.4. Nuclei and plasma membrane fractions were separated by a first mild centrifugation (700× g, 10 min), and mitochondria were then spinned down at a higher speed (7000× g, 10 min). All procedures were carried out at 0–4°C.
PTP opening was detected as a fluorescence increase.

Assay [5] has the same test system. As to conditions: ref [30]; cited from earlier work. The source says: AA is the cyclodecapeptide c([…] (Figure 1A). To evaluate its effect on the PTP, we performed Ca^2+ retention capacity (CRC) assays on isolated mouse liver mitochondria (MLM).
Assay [6] concerns HeLa cells. It is filed as cell-based, human. As to conditions: phalloidin 50 µg/ml, 1 hour, TMRM, Figure S1B.
Assay [7] relates to mouse model of the disease. As to conditions: ref [38]; cited from earlier work. The text has this: (§2) CyP-D is a promising pharmacological target.
For assay [8], the system named is muscle samples derived from patients affected by Ullrich muscular dystrophy. As to conditions: ref [37]; cited from earlier work.
Excerpt: as §2

For assay [9], the system named is organic anion-transporting polypeptide family. As to conditions: also our unpublished data; ref [8]; cited from earlier work. The text has this: (§3) Antamanide (AA) is a monocyclic, homodetic decapeptide isolated from the poisonous mushroom Amanita phalloides. […] Little is known about the biochemical mechanisms underlying these diverse bioactivities. […] The CyP chaperone activity, i.e. the isomerization to the cis form of the peptidyl bonds preceding each proline, is involved in folding and association processes required for proteins to perform thei ...

In assay [10] the test system is mitochondrial permeability transition pore (PTP). As to conditions: ref [37]; cited from earlier work. The procedure:
Briefly, at the end of the incubation, cells were resuspended in 135 mM NaCl, 10 mM HEPES, 5 mM CaCl2 and incubated at 37°C in either TMRM (10 nM) to detect mitochondrial depolarization (reduced TMRM staining), or in FITC-conjugated Annexin-V and propidium iodide (PI, 1 µg/ml), to detect phosphatidylserine exposure on the cell surface (increased FITC-conjugated Annexin-V staining) and loss of plasma membrane integrity (PI permeability and staining).

For another assay, the system named is immunosuppressant. On the set-up: method as in PMID 1494502, PMID 8441706. As to conditions: ref [10], [11]; cited from earlier work.
Excerpt: as §3

The next assay concerns HCV/HIV. As to conditions: ref [35]; cited from earlier work. The text has this: (§4) CyP-D is a promising pharmacological target. It is part of the CyP protein family, composed by ubiquitous and extremely conserved proteins located in different subcellular compartments, [35].
The subject of another assay is lymphocyte activation. As to conditions: via CyP-A/CsA complex; ref [36]; cited from earlier work.
Excerpt: as §4

For assay [11], the system named is tumor necrosis; metastasis formation. As to conditions: ref [45]; cited from earlier work.
The subject of a further assay is malignancies. As to conditions: ref [47]; cited from earlier work.
For assay [12], the system named is multidrug resistance proteins. As to conditions: ref [50]; cited from earlier work.
[13] abbreviates: 30 min preincubation, then TAT-HK 1 hour.

Entries after “also recorded” stand apart in the source; their conditions may differ. Where two headings read alike, the source gives them in different places.

For “MIASHLLAYFFTELNbA-GYGRKKRRQRRRG [TAT-HK, HKII-displacing peptide]”, in the assay with HeLa cells [1], the “induction of mitochondrial depolarization” value is “marked mitochondrial depolarization”. Also, the “percentage of cells with depolarized mitochondria: difference from untreated cells” value in the assay on HeLa cells [1] (n = 4) was “significant difference (Student's t test analysis; #: p<0.01)”. Further, the cell death induction result in the assay with HeLa cells [2] (TAT-HK 1 hour, Annexin V / propidium iodide) was “fast and dramatic cell death, mainly necrosis”. In addition, the “number of PI+ cells: difference from untreated cells” value in the assay on HeLa cells [2] (TAT-HK 1 hour, n = 4, Student's t test #: p<0.01) is given as “significantly increased”.
Turning to `Clc1ccccc1C(c1ccccc1)(c1ccccc1)n1ccnc1` [CTM, clotrimazole], in the assay with HeLa cells [1], the “induction of mitochondrial depolarization” value is given as “marked mitochondrial depolarization”. The “percentage of cells with depolarized mitochondria: difference from untreated cells” value with HeLa cells [1] (n = 4) is recorded as “significant difference (Student's t test analysis; #: p<0.01)”. Moreover, the “cell death induction by clotrimazole” value with HeLa cells [3] (compared with TAT-HK) is “A similar degree of cell death was observed”.
Take `COC1=C(OC)C(=O)C(C)=CC1=O` [Ub0, Ubiquinone 0, reference compound]: in [4] (AA at various concentrations, Figure 1C and D, mean±SD of at least 4 experiments, Student's t test), the “CRC/CRC0: difference from CRC of untreated mitochondria” value was “significant difference (Student's t test analysis; *: p<0.01)”. For the same molecule, in assay [4] (arsenate (Asi) buffer, Figure 1B, D), the “PTP inhibition in arsenate” value is “inhibits the pore also in Asi buffer, albeit to a lesser extent”. The “PTP inhibition when phosphate is substituted with arsenate” value in assay [5] is on record as “the effect of CsA, but not of Ub0, is abolished”.
With phalloidin [reference compound], the “activity on the PTP” value in [4] (phalloidin 50 µg/ml) was “inactive on the PTP”. Moreover, the “effect on mitochondrial Ca2+ retention capacity” value in assay [4] (phalloidin 50 µg/ml, MLM, 3 experiments, Figure S1A) is “could not detect any effect”. The “effect on mitochondrial potential” value in the assay on HeLa cells [6] was “could not detect any effect”.
For the molecule Debio-025, the “mitochondrial function and apoptotic rate” value in assay [7] is “normalizes mitochondrial function and apoptotic rate”; in assay [8], “normalizes mitochondrial function and apoptotic rate”.
On to `CO[C@H]1C[C@@H]2CC[C@@H](C)[C@@](O)(O2)C(=O)C(=O)N2CCCC[C@H]2C(=O)O[C@H]([C@H](C)C[C@@H]2CC[C@@H](O)[C@H](OC)C2)CC(=O)[C@H](C)/C=C(\C)[C@@H](O)[C@@H](OC)C(=O)[C@H](C)C[C@H](C)/C=C/C=C/C=C/1C` [rapamycin], for which, in assay [9], the “inhibition of cell uptake of phalloidin” value is listed as “cell uptake of phalloidin was also inhibited”.
Turning to cyclosporin H, the “activity on the PTP” value in assay [10] was “inactive on the PTP”.
As for `C=CC[C@@H]1/C=C(\C)C[C@H](C)C[C@H](OC)[C@H]2O[C@@](O)(C(=O)C(=O)N3CCCC[C@H]3C(=O)O[C@H](/C(C)=C/[C@@H]3CC[C@@H](O)[C@H](OC)C3)[C@H](C)[C@@H](O)CC1=O)[C@H](C)C[C@@H]2OC` [FK506], in assay [9], the “inhibition of cell uptake of phalloidin” value is “cell uptake of phalloidin was also inhibited”.
On to cyclosporin A [CsA], for which, in the assay on HeLa cells [1] (30 min preincubation, then CTM 1 hour, n = 4), the “reversal of CTM-induced mitochondrial depolarization” value is listed as “significantly decreased the percentage of cells with mitochondria depolarized by CTM (Student's t test analysis; *: p<0.01); also recorded: similarly reverted”. In the assay on HeLa cells [1] (30 min preincubation, then TAT-HK 1 hour, n = 4), the “reversal of TAT-HK-induced mitochondrial depolarization” value is recorded as “similarly reverted”. For the same molecule, in the assay on HeLa cells [2] (setting [13]), the “effect on TAT-HK-induced necrotic response” value is “virtually abolished the necrotic response” and the “residual apoptosis after TAT-HK” value is on record as “a small fraction of cells undergoing apoptosis was still detectable”. Moreover, the “protection from TAT-HK induced death” value in the assay on HeLa cells [2] (30 min preincubation, then TAT-HK 1 hour, n = 4, Student's t test *: p<0.01) is “significantly protected from TAT-HK induced death”. In the assay with HeLa cells [3] (clotrimazole), the “inhibition of clotrimazole-induced cell death” value is “inhibited the process”. Further, in the assay on immunosuppressant, the immunosuppressant activity entry is recorded as “act as immunosuppressants”. Besides, in the assay on HCV/HIV, the “prevention of HCV/HIV replication” value is “prevent HCV/HIV replication”. Also, in the assay on lymphocyte activation, the “inhibition of lymphocyte activation” value is on record as “inhibits lymphocyte activation”. For the same molecule, the “effect on tumor necrosis and metastasis” value in assay [11] was “induces tumor necrosis and abrogates metastasis formation”. In addition, the “effect on progression of malignancies” value in the assay on malignancies is reported as “can enhance the progression of certain malignancies”. Moreover, the “inhibition of multidrug resistance proteins” value in [12] is “inhibits multidrug resistance proteins”.
Turning to `N#CC(C#N)=NNc1ccc(OC(F)(F)F)cc1` [FCCP], the “mitochondrial depolarization (positive control)” value in the assay on HeLa cells [1] (FCCP 4 µM) was “full mitochondrial depolarization”.
